The subject of series [1] is non-small cell lung cancer cell line A549. The series is described as follows: CellTiter-Glo tumor cell proliferation, A549. It is filed as cell-based, human. As to conditions: Homo sapiens, A549; CellTiter-Glo, 72 h. The procedure, abridged:
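Cells seeded at 2×10^4/mL, grown 24 h at 37° C, 5% CO2, then treated in triplicate with medium-diluted compound for 72 h. CellTiter-Glo luminescence read after 20 min at 37° C; inhibition versus untreated control RLU, IC50 calculated.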

In series [2] the test system is A549. Put plainly: MTT antitumor spectrum, A549. The series is classed as cell-based. As to conditions: Homo sapiens, 72 h. Here is the method:
(§1) The activity of compound 30 was evaluated by MTT method against seven tumor cell models, A549, A375, HCT116, MDA-MB-231, HepG2, PC3 and MCF-7. All cells used in the study were prepared at a concentration of 3.5×10^3 cells/mL, and each […] cell suspension was inoculated on a 96-well microtiter plate for 24 hours (37° C., 5% CO2). Then different concentrations of compound 30 were added, incubated for 72 hours; and for the control group, equivalent concentrations of DMSO (final concentration 0.5%) were added. The number of viable cells was measured by MTT (3-(4,5-dimethylthiazol-2-yl)-diphenyl tetrazolium bromide) method, and the OD value at 492/620 nm was recorded. The IC50 value was calculated by Prism-Graphpad software based on the results of triplicate experiments.

Series [3] deals with HepG2. The series is described as follows: MTT antitumor spectrum, HepG2. The series is classed as cell-based. As to conditions: Homo sapiens, 72 h. As to the method:
as §1

The subject of series [4] is MCF-7. Put plainly: MTT antitumor spectrum, MCF-7. To be noted: Homo sapiens, MCF7, 72 h. The series is classed as cell-based. As to the method: as §1
For series [5], the system named is human liver cancer Bel7404. The series is described as follows: Antitumor activity in vivo, Bel7404 transplanted in nude mice. To be noted: for RTV (d22): iv × 5; for Animal weight (g) (After tumor removal) / Inhibition rate %: iv × 5, d22. The arrangement: species or system male BALB/c athymic nude mice. As to the method:
In the test, the Bel7404 models of human liver cancer transplanted into 6-week-old male BALB/c athymic nude mice (purchased from Shanghai Slac Laboratory Animal Co., Ltd.) with body weight of 18-20 g were used to study the anti-tumor effect of compound 30. The dose of compound 30 was 50 mg/kg (30H group), 25 mg/kg (30 M group) and 12.5 mg/kg (30 L group), respectively, and was injected intravenously twice a week for 5 times in total; at the same time, 5-FU was used as the control drug, which was injected intraperitoneally twice a week for 7 times in total (5 mice/group for the compound 30 administration group, 5 mice in 5 FU administration group; 8 mice were used as the mock group). The long diameter a (mm) and the vertical short diameter b (mm) of the tumor were measured twice a week with a digital electronic caliper. The tumor volume calculation formula was TV=ab^2/2; and the relative tumor volume calculation formula was RTV=Vt/Vo, wherein Vo was the tumor volume measured on the first day of administration (d1), and Vt was the tumor volume at each measurement. On the 22nd day of administration (d22), the animals were sacrificed and weighed. The tumor mass was dissected and weighed. The tumor inhibition rate (tumor inhibitory rate, %) was calculated according to the following formula: […]

The test system of series [6] is liver cancer cell line HepG2. The series is described as follows: CellTiter-Glo tumor cell proliferation, HepG2. The series is classed as cell-based, human. As to conditions: Homo sapiens, HepG2, 72 h. Here is the method:
The effect of compounds on tumor cell proliferation was detected by CellTiter-Glo method. Human melanoma cell line A375, non-small cell lung cancer cell line A549, human lung adenocarcinoma cell line H1299, colorectal cancer cell line HCT116, liver cancer cell line HepG2 and gastric cancer cell line MGC80-3 were cultured in vitro. The cells were collected after growing to the logarithmic growth phase, centrifuged at 1000 rpm for 5 min, and suspended in an appropriate amount of medium after discarding the supernatant, and the cell concentration was adjusted to 2×10^4/mL. The cell suspension was inoculated onto the 384-well cell culture plate, with 50 μL per well. After being cultured in a cell incubator (37° C., 5% CO2) for 24 h, 5 μL of drug diluted by the cell culture medium was added into each well for the treatment group. Each drug was provided in triplicate. After 72 h incubation in the incubator, 20 μL of CellTiter-Glo was added into each well, and the relative luminescence unit (RLU) was measured with Multimode Microplate Reader Varioskan Flash (Thermo Scientific, USA) after placed at 37° C. for 20 min, and compared with the RLU of the control group. SigmaPlot 10.0 software was used to calculate the inhibition rate and IC50 value.
In general terms: Cellular ATP, detected with luciferase, serves as a proxy for viable cell number.

A short description of series [7]: Pharmacokinetic test in rats (IV and PO). It is filed as in vivo, male SD rats. Here is the method:
This experiment includes the PO group and IV group, with three animals in each group. For the PO group, about 0.25 mL of whole blood was collected from orbital venous plexus before administration, and 15 min, 30 min, 1 h, 2 h, 4 h, 7 h and 24 h after administration, and for the IV group, about 0.25 mL of whole blood was collected from orbital venous plexus before administration, and 5 min, 15 min, 30 min, 1 h, 2 h, 4 h, 7 h and 24 h after administration, which were placed in heparin anticoagulant tube. After the blood collection, the blood collection tubes containing anticoagulant agent was inverted several times to fully mix, and placed on wet ice before centrifugation. Within 60 minutes after blood collection, it was centrifuged at 8000 rpm under 2 to 8° C. for 10 minutes to separate red blood cells and obtain plasma samples. The plasma sample was transferred to a cryogenic tube and stored at −75±15° C. until analysis. 50 μL of the plasma sample was taken and added with 5 μL of acetonitrile:water (1:1, v/v), and added with 200 μL of 0.1% formic acid-acetonitrile, centrifuged (12000 rpm, 15 min); the supernatant was diluted in 1:1 with ultrapure water. The plasma drug concentration was analyzed by using LC-MS/MS method. Microsoft EXCEL was used to statistically describe the experimental data with mean, deviation % and standard deviation (SD). The pharmacokinetic parameters were calculated with WinNonlin 8.1 software. The following pharmacokinetic parameters were calculated: CL (clearance), Vd (apparent volume of distribution), T1/2 (elimination half-life time), Cmax (peak concentration), Tmax (peak time), AUC (area under the blood concentration-time curve), and F % (bioavailability).

The mark [8] stands for this setting: male, SD, rat, IV 1 mg/kg, single, plasma.
Where [9] appears, read: male, SD, rat, PO 10 mg/kg, single, plasma.

As usually defined, the IC50 is the concentration at which inhibition is half-maximal. Lower therefore signals inhibition by little substance. As a reminder, the bioavailability is the share of a dose that reaches the circulation, judged against a reference dose that is usually intravenous. One may read the AUC(0-inf) as total exposure, with the tail of the curve extrapolated. Low readings indicate low exposure, high ones high exposure. By AUC(0-t) is commonly meant the area under the concentration-time curve up to a stated or last time point. Read a low AUC(0-t) as less exposure. Usually Cmax stands for the highest concentration seen after dosing. By Tmax is commonly meant the time from dosing to the highest level. The term half-life denotes how long it takes for the measured level to halve. Low values mean rapid decline, high ones slow decline.

For `CC(C)C[C@H](NC(=O)Cn1nc(-c2cccc(OCCN3CCOCC3)c2)cc1-c1ccccc1)B(O)O.Cl` [Compound 30, (R)-(3-methyl-1-(2-(3-(3-(2-morpholinoethoxy)phenyl)-5-phenyl-1H-pyrazol-1-yl)-acetamido)butyl)boronic acid hydrochloride], the IC50 in series [1] is 3.05 µM; in series [2], 3.05 µM; in series [3] it was 1.08 µM; in series [4], 0.69 µM. The “RTV (d22)” value stood at 4.52 ± 1.08 in series [5] (12.5 mg/kg), 3.82 ± 0.67 in series [5] (25 mg/kg) and 2.33 ± 0.59 in series [5] (50 mg/kg). The “Animal weight (g) (After tumor removal)” value in series [5] (12.5 mg/kg) stood at 23.11 ± 0.65 g; in series [5] (25 mg/kg), 21.91 ± 0.56 g; in series [5] (50 mg/kg), 19.95 ± 0.45 g. Moreover, the Inhibition rate % in series [5] (12.5 mg/kg) turned out to be 24.89%; in series [5] (25 mg/kg) it was 36.55%; in series [5] (50 mg/kg), 61.29%.

Take `CC(C)C[C@H](NC(=O)Cn1nc(-c2cccc(OCCN3CCN(c4ccccc4)CC3)c2)cc1-c1ccccc1)B(O)O.Cl` [Compound 39, (R)-(3-methyl-1-(2-(5-phenyl-3-(3-(2-(4-phenylpiperazin-1-yl)ethoxy)phenyl)-1H-pyrazol-1-yl)acetamido)butyl)boronic acid hydrochloride]: the midpoint of inhibition in series [6], the IC50, lay at 0.054 µM. In series [7] (IV 1 mg/kg), the “clearance (in words)” value is on record as “medium clearance”. The compound further gave a CL_obs in series [7] (IV 1 mg/kg, single, plasma, hydrochloride, 1 mg/kg) of 1.26 ± 0.204 L/h/kg. Besides, the “distribution in vivo (in words)” value in series [7] (IV 1 mg/kg, Vd higher than total liquid volume of SD rats) is reported as “widely distributed in vivo”. For the same compound, the “absorption (in words)” value in series [7] (PO 10 mg/kg) was “rapid absorption”. In addition, the bioavailability in series [7] (male, SD, rat, plasma, PO 10 mg/kg vs IV 1 mg/kg, read-out: F (bioavailability)) turned out to be 2.42 ± 1.91%. In series [7] (setting [8]), this compound showed an AUC(0-inf) of 0.807 ± 0.123 µg·h/mL, an AUC(0-t) of 0.767 ± 0.117 µg·h/mL, a C0 of 0.846 ± 0.183 µg/mL and a Cmax of 0.671 ± 0.124 µg/mL. In series [7] (setting [8]), the Tmax worked out at 4.98 min, the Vd is 13.9 ± 2.8 L/kg and the half-life is 458 ± 18 min. In series [7] (setting [9]), the AUC(0-inf) was determined as 0.191 ± 0.147 µg·h/mL, the AUC(0-t) stood at 0.186 ± 0.147 µg·h/mL, the peak level (Cmax) was 0.0748 ± 0.082 µg/mL and the Tmax came to 19.8 ± 8.4 min. This compound showed a half-life in series [7] (setting [9]) of 97.8 ± 21.6 min.

Source of the values: patent publication US12473305B2, “Pyrazole boronic acid compound, pharmaceutical composition containing same, and uses thereof” (BEIJING SONGRUN PHARMACEUTICAL TECHNOLOGY CO., LTD., priority 2020, dated 2025).
